According to US9029325B2, “Amylin analogues and pharmaceutical compositions thereof” (Novo Nordisk A/S, priority 2011, dated 2015):
Starred links: 1 amine or outer side, 2 acyl side, 3 side chain; linkers in the order of their positions; H or OH if unused. Positions of bridges follow the written chain, without caps; N, C: chain ends. Non-standard residues stand in square brackets, D forms with d. Residues, ends and D or L forms follow the SMILES beside them. Groups on a side chain read outwards from the residue. *: point of attachment. C20 diacid = O=C(O)CCCCCCCCCCCCCCCCCCC(=O)*; C18 diacid = O=C(O)CCCCCCCCCCCCCCCCC(=O)*; γGlu = O=C(O)[C@H](CCC(=O)[*:2])N[*:1]; Orn = NCCC[C@H](N)C(=O)O; AEEA = NCCOCCOCC(=O)O

What was measured:
[1] = Assay (III) ThT fibrillation assay for physical stability; type: physicochemical; conditions: for Th T pH 4.0 lag time (h): 37° C., orbital shaking 960 rpm; for ThT pH 4.0 lag time: Table 9
Description: Low physical stability of a polypeptide may lead to amyloid fibril formation, which is observed as well-ordered, thread-like macromolecular structures in the sample eventually resulting in gel formation. This has traditionally been measured by visual inspection of the sample. However, that kind of measurement is very subjective and depending on the observer. Therefore, the application of a small molecule indicator probe is much more advantageous. Thioflavin T (ThT) is such a probe and has a distinct fluorescence signature when binding to fibrils [Naiki et al. (1989) Anal. Biochem. 177, 244-249; LeVine (1999) Methods. Enzymol. […], 274-284].
The time course for fibril formation can be described by a sigmoidal curve with the following expression [Nielsen et al. (2001) Biochemistry 40, 6036-6046]:
[formula] Here, F is the ThT fluorescence at the time t. The constant t0 is the time needed to reach 50% of maximum fluorescence. The two important parameters describing fibril formation are the lag-time calculated by t0−2T and the apparent rate constant kapp=1/τ.
Few of those intermediates nucleate to form a template onto which further intermediates may assembly and the fibrillation proceeds. The lag-time corresponds to the interval in which the critical mass of nucleus is built up and the apparent rate constant is the rate with which the fibril itself is formed.
Samples were prepared freshly before each assay. Each sample composition is described in each example. The pH of the sample was adjusted to the desired value using appropriate amounts of concentrated NaOH and HClO4 or HCl. Thioflavin T was added to the samples from a stock solution in H2O to a final concentration of 1 μM.
Sample aliquots of 200 μl were placed in a 96 well microtiter plate (Packard OptiPlate™-96, white polystyrene). Usually, four or eight replica of each sample (corresponding to one test condition) were placed in one column of wells. The plate was sealed with Scotch Pad (Qiagen).
Incubation at given temperature, shaking and measurement of the ThT fluorescence emission were done in a Fluoroskan Ascent FL fluorescence platereader or Varioskan platereader (Thermo Labsystems). The temperature was adjusted to 37° C. The orbital shaking was adjusted to 960 rpm with an amplitude of 1 mm in all the presented data. Fluorescence measurement was done using excitation through a 444 nm filter and measurement of emission through a 485 nm filter.
Each run was initiated by incubating the plate at the assay temperature for 10 min. The plate was measured every 20 minutes for a desired period of time. Between each measurement, the plate was shaken and heated as described.
The measurement points were saved in Microsoft Excel format for further processing and curve drawing and fitting was performed using GraphPad Prism. The background emission from ThT in the absence of fibrils was negligible. The data points are typically a mean of four or eight samples and shown with standard deviation error bars. Only data obtained in the same experiment (i.e. samples on the same plate) are presented in the same graph ensuring a relative measure of fibrillation […].
The data set may be fitted to Eq. (1). However, since full sigmodial curves in this case are not always achieved during the measurement time, the degree of fibrillation is expressed as ThT fluorescence tabulated as the mean of the samples and shown with the standard deviation at various time points.
The polypeptide concentration in each of the tested formulations were measured both before application in the ThT fibrillation assay (“Initial”) and after completion of the ThT fibrillation (“After ThT assay”). Concentrations were determined by reverse HPLC methods using a pramlintide standard as a reference. Before measurement after completion 150 μl was collected from each of the replica and transferred to an Eppendorf tube. These were centrifuged at 30000 G for 40 mins. […]

[2] = Assay (I) efficacy testing on appetite (food intake), ad libitum fed rat model; type: in vivo, Sprague Dawley (SD) rats; conditions: 3 nmol/kg
Outline: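 Single ip, po or sc dosing (0.01-3 mg/kg, by body weight) at the start of the dark phase, in individually housed Sprague Dawley rats of 200-250 g with free food and water. Intake was logged per rat each hour to 7 h, then at 24 h (occasionally 48 h), against a vehicle group; outliers removed by Grubbs test.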

Row | SMILES | Th T pH 4.0 lag time (h) [1] | ThT pH 4.0 lag time [1] | Food intake reduction 0-24 h 3 nmol/kg (%) [2] | Food intake reduction 24-48 h 3 nmol/kg (%) [2]
1 | CC[C@H](C)[C@H](NC(=O)[C@@H]1CCCN1C(=O)CNC(=O)[C@H](Cc1ccccc1)NC(=O)[C@H](CC(N)=O)NC(=O)[C@H](CC(N)=O)NC(=O)[C@H](CO)NC(=O)[C@H](CO)NC(=O)[C@H](Cc1c[nH]cn1)NC(=O)[C@H](CCCNC(=N)N)NC(=O)[C@H](CC(C)C)NC(=O)[C@H](Cc1ccccc1)NC(=O)[C@H](CCC(=O)O)NC(=O)[C@H](C)NC(=O)[C@H](CC(C)C)NC(=O)[C@H](CCCNC(=N)N)NC(=O)[C@H](CCC(N)=O)NC(=O)[C@@H](NC(=O)[C@H](C)NC(=O)[C@@H]1CSSC[C@H](NC(=O)CNC(=O)CC[C@H](NC(=O)CCCCCCCCCCCCCCCCCCC(=O)O)C(=O)O)C(=O)N[C@@H](CC(N)=O)C(=O)N[C@@H]([C@@H](C)O)C(=O)N[C@@H](C)C(=O)N[C@@H]([C@@H](C)O)C(=O)N1)[C@@H](C)O)C(=O)N[C@@H](CC(C)C)C(=O)N1CCC[C@H]1C(=O)N1CCC[C@H]1C(=O)N[C@H](C(=O)N[C@@H](CC(N)=O)C(=O)N[C@H](C(=O)NCC(=O)N[C@@H](CO)C(=O)N[C@@H](CC(N)=O)C(=O)N[C@H](C(=O)N1CCC[C@H]1C(N)=O)[C@@H](C)O)C(C)C)[C@@H](C)O [Example 88, N-alpha-[(S)-4-Carboxy-4-(19-carboxynonadecanoylamino)butyryl]-[Gly1, Glu14, Arg17, Pro37]-pramlintide] ({C20 diacid-γGlu}-GCNTATCATQRLAEFLRHSSNNFGPILPPTNVGSNTP-NH2; disulfide 2-7 (inferred); C-terminus assumed) | >45 h | >45 hr |  | 
2 | CC[C@H](C)[C@H](NC(=O)[C@@H]1CCCN1C(=O)CNC(=O)[C@H](Cc1ccccc1)NC(=O)[C@H](CC(N)=O)NC(=O)[C@H](CC(N)=O)NC(=O)[C@H](CO)NC(=O)[C@H](CO)NC(=O)[C@H](Cc1c[nH]cn1)NC(=O)[C@H](CCCNC(=N)N)NC(=O)[C@H](CC(C)C)NC(=O)[C@H](Cc1ccccc1)NC(=O)[C@H](CCC(=O)O)NC(=O)[C@H](C)NC(=O)[C@H](CC(C)C)NC(=O)[C@H](CCCNC(=N)N)NC(=O)[C@H](CCC(N)=O)NC(=O)[C@@H](NC(=O)[C@H](C)NC(=O)[C@@H]1CSSC[C@H](NC(=O)[C@H](Cc2c[nH]cn2)NC(=O)CC[C@H](NC(=O)CCCCCCCCCCCCCCCCCCC(=O)O)C(=O)O)C(=O)N[C@@H](CC(N)=O)C(=O)N[C@@H]([C@@H](C)O)C(=O)N[C@@H](C)C(=O)N[C@@H]([C@@H](C)O)C(=O)N1)[C@@H](C)O)C(=O)N[C@@H](CC(C)C)C(=O)N1CCC[C@H]1C(=O)N1CCC[C@H]1C(=O)N[C@H](C(=O)N[C@@H](CC(N)=O)C(=O)N[C@H](C(=O)NCC(=O)N[C@@H](CO)C(=O)N[C@@H](CC(N)=O)C(=O)N[C@H](C(=O)N1CCC[C@H]1C(N)=O)[C@@H](C)O)C(C)C)[C@@H](C)O [Example 90, N-alpha-[(S)-4-Carboxy-4-(19-carboxynonadecanoylamino)butyryl]-[His1, Glu14, Arg17, Pro37]-pramlintide] ({C20 diacid-γGlu}-HCNTATCATQRLAEFLRHSSNNFGPILPPTNVGSNTP-NH2; disulfide 2-7 (inferred); C-terminus assumed) | >45 h | >45 hr |  | 
3 | CC[C@H](C)[C@H](NC(=O)[C@H](CCCCNC(=O)COCCOCCNC(=O)COCCOCCNC(=O)CC[C@H](NC(=O)CCCCCCCCCCCCCCCCC(=O)O)C(=O)O)NC(=O)CNC(=O)[C@H](Cc1ccccc1)NC(=O)[C@H](CC(N)=O)NC(=O)[C@H](CC(N)=O)NC(=O)[C@H](CO)NC(=O)[C@H](CO)NC(=O)[C@H](Cc1c[nH]cn1)NC(=O)[C@H](Cc1c[nH]cn1)NC(=O)[C@H](CC(C)C)NC(=O)[C@H](Cc1ccccc1)NC(=O)[C@H](CCC(=O)O)NC(=O)[C@H](C)NC(=O)[C@H](CC(C)C)NC(=O)[C@H](CCCNC(=N)N)NC(=O)[C@H](CCC(N)=O)NC(=O)[C@@H](NC(=O)[C@H](C)NC(=O)[C@@H]1CSSC[C@H](NC(=O)[C@@H](N)CCCCN)C(=O)N[C@@H](CC(N)=O)C(=O)N[C@@H]([C@@H](C)O)C(=O)N[C@@H](C)C(=O)N[C@@H]([C@@H](C)O)C(=O)N1)[C@@H](C)O)C(=O)N[C@@H](CC(C)C)C(=O)N1CCC[C@H]1C(=O)N1CCC[C@H]1C(=O)N[C@H](C(=O)N[C@@H](CC(N)=O)C(=O)N[C@H](C(=O)NCC(=O)N[C@@H](CO)C(=O)N[C@@H](CC(N)=O)C(=O)N[C@H](C(=O)N[C@@H](Cc1ccc(O)cc1)C(N)=O)[C@@H](C)O)C(C)C)[C@@H](C)O [compound 73] (H-KCNTATCATQRLAEFLHHSSNNFGK([AEEA-AEEA-γGlu-C18 diacid])ILPPTNVGSNTY-NH2; disulfide 2-7 (inferred); N-terminus and C-terminus assumed) |  |  | 29% | 2%
4 | CC[C@H](C)[C@H](NC(=O)[C@@H]1CCCN1C(=O)CNC(=O)[C@H](Cc1ccccc1)NC(=O)[C@H](CC(N)=O)NC(=O)[C@H](CCC(N)=O)NC(=O)[C@H](CO)NC(=O)[C@H](CO)NC(=O)[C@H](Cc1c[nH]cn1)NC(=O)[C@H](Cc1c[nH]cn1)NC(=O)[C@H](CC(C)C)NC(=O)[C@H](Cc1ccccc1)NC(=O)[C@H](CCC(=O)O)NC(=O)[C@H](C)NC(=O)[C@H](CC(C)C)NC(=O)[C@H](CCCNC(=N)N)NC(=O)[C@H](CCC(N)=O)NC(=O)[C@@H](NC(=O)[C@H](C)NC(=O)[C@@H]1CSSC[C@H](NC(=O)[C@H](CCCCN)NC(=O)CC[C@H](NC(=O)CCCCCCCCCCCCCCCCCCC(=O)O)C(=O)O)C(=O)N[C@@H](CC(N)=O)C(=O)N[C@@H]([C@@H](C)O)C(=O)N[C@@H](C)C(=O)N[C@@H]([C@@H](C)O)C(=O)N1)[C@@H](C)O)C(=O)N[C@@H](CC(C)C)C(=O)N1CCC[C@H]1C(=O)N1CCC[C@H]1C(=O)N[C@H](C(=O)N[C@@H](CC(N)=O)C(=O)N[C@H](C(=O)NCC(=O)N[C@@H](CO)C(=O)N[C@@H](Cc1c[nH]cn1)C(=O)N[C@H](C(=O)N[C@@H](Cc1ccc(O)cc1)C(N)=O)[C@@H](C)O)C(C)C)[C@@H](C)O [compound 117] ({C20 diacid-γGlu}-KCNTATCATQRLAEFLHHSSQNFGPILPPTNVGSHTY-NH2; disulfide 2-7 (inferred); C-terminus assumed) |  |  | 50% | 35%
5 | CC[C@H](C)[C@H](NC(=O)[C@@H]1CCCN1C(=O)CNC(=O)[C@H](Cc1ccccc1)NC(=O)[C@H](CC(N)=O)NC(=O)[C@H](CC(N)=O)NC(=O)[C@H](CO)NC(=O)[C@H](CO)NC(=O)[C@H](CCCNC(=N)N)NC(=O)[C@H](Cc1c[nH]cn1)NC(=O)[C@H](CC(C)C)NC(=O)[C@H](Cc1ccccc1)NC(=O)[C@H](CCC(=O)O)NC(=O)[C@H](C)NC(=O)[C@H](CC(C)C)NC(=O)[C@H](CCCNC(=N)N)NC(=O)[C@H](CCC(N)=O)NC(=O)[C@@H](NC(=O)[C@H](C)NC(=O)[C@@H]1CSSC[C@H](NC(=O)[C@H](CCCN)NC(=O)[C@@H](CCCNC(=N)N)NC(=O)[C@@H](CCCNC(=N)N)NC(=O)COCCOCCNC(=O)COCCOCCNC(=O)CC[C@H](NC(=O)CCCCCCCCCCCCCCCCC(=O)O)C(=O)O)C(=O)N[C@@H](CC(N)=O)C(=O)N[C@@H]([C@@H](C)O)C(=O)N[C@@H](C)C(=O)N[C@@H]([C@@H](C)O)C(=O)N1)[C@@H](C)O)C(=O)N[C@@H](CC(C)C)C(=O)N1CCC[C@H]1C(=O)N1CCC[C@H]1C(=O)N[C@H](C(=O)N[C@@H](CC(N)=O)C(=O)N[C@H](C(=O)NCC(=O)N[C@@H](CO)C(=O)N[C@@H](CC(N)=O)C(=O)N[C@H](C(=O)N[C@@H](Cc1ccc(O)cc1)C(N)=O)[C@@H](C)O)C(C)C)[C@@H](C)O [compound 120] ({C18 diacid-γGlu-AEEA-AEEA}-[dR][dR][Orn]CNTATCATQRLAEFLHRSSNNFGPILPPTNVGSNTY-NH2; disulfide 4-9 (inferred); C-terminus assumed) |  |  | 53% | 2%
